{
  "source": "patent US7803375B2",
  "about": "“Methods and compositions for treating conditions of the eye” (Massachusetts Eye and Ear Infirmary, priority 2005, dated 2010)",
  "key": {"[1]": {"conditions": "typical; cited from earlier work"}, "Fas receptor": {"system": "Fas receptor", "experiment": "Retinal levels of Fas receptor after verteporfin PDT", "assay_type": "in vivo", "conditions": "rat retina, FIG. 3"}},
  "data": [
    {"compound": "benzoporphyrin derivative", "values": [
      {"measurement": "persistence in the target neovasculature", "setting": "[1]", "result": "about fifty"}
    ]},
    {"compound": "O=C([O-])c1c(Cl)c(Cl)c(Cl)c(Cl)c1-c1c2cc(I)c(=O)c(I)c-2oc2c(I)c([O-])c(I)cc12.[Na+].[Na+]", "note": "[rose bengal]", "values": [
      {"measurement": "persistence in the target neovasculature", "setting": "[1]", "result": "about ten"}
    ]},
    {"compound": "C=Cc1c(C)c2cc3nc(c(CC(=O)N[C@@H](CC(=O)O)C(=O)O)c4[nH]c(cc5nc(cc1[nH]2)C(C)=C5CC)c(C)c4C(=O)O)[C@@H](CCC(=O)O)[C@@H]3C", "note": "[N-aspartyl chlorin e6]", "values": [
      {"measurement": "persistence in the target neovasculature", "setting": "[1]", "result": "about twenty"}
    ]},
    {"compound": "CC(=O)[O-].CC(=O)[O-].CCc1c(CC)c2cc3nc(cnc4cc(OCCOCCOCCOC)c(OCCOCCOCCOC)cc4ncc4nc(cc1[n-]2)C(CCCO)=C4C)C(C)=C3CCCO.O.[Lu+3]", "note": "[lutetium texaphyrin]", "values": [
      {"measurement": "persistence in the target neovasculature", "setting": "[1]", "result": "about twenty"}
    ]},
    {"compound": "verteporfin", "values": [
      {"measurement": "retinal levels of the apoptotic death receptor Fas", "setting": "Fas receptor", "result": "increases"}
    ]}
  ]
}
